{"source": "patent US11090285B2", "about": "“Treatment of circadian rhythm disorders” (Vanda Pharmaceuticals Inc., priority 2013, dated 2021)", "key": {"[1]": {"assay": "Effect of smoking on pharmacokinetics of tasimelteon and metabolites", "assay_type": "in vivo, human", "from_the_text": "Smokers were defined as those smoking 10 or more cigarettes per day. Non-smokers were defined as those smoking no cigarettes per day."}, "MT2R": {"target": "T1, MT2R (Homo sapiens, UniProt P49286)", "T1 sequence (P49286 1-362)": "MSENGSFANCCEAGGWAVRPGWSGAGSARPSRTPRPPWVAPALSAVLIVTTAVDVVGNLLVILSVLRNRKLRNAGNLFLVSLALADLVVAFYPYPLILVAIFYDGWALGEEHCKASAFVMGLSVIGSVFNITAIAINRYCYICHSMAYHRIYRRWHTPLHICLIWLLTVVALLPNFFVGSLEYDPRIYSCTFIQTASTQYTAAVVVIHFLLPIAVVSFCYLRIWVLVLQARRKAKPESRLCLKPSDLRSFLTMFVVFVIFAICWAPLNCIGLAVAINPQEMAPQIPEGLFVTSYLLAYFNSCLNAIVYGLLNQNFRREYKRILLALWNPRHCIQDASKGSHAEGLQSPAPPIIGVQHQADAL", "assay": "Melatonin receptor affinity, MT2R", "assay_type": "binding", "procedure": "(§1) Tasimelteon is a white to off-white powder with a melting point of about 78° C. […] Tasimelteon has 2-4 times greater affinity for MT2R relative to MT1R."}, "[2]": {"assay": "tmax after administration", "parameters": "species or system human", "conditions": "in vivo", "procedure": "The ability to administer tasimelteon as little as about one hour prior to sleep time is advantageous because it allows for avoidance of pre-sleep time soporific effects, because it allows for administration of higher doses that might have greater soporific effects, and because it allows for pharmacologic intervention at a different phase of the sleep cycle than if it were administered earlier. Without wishing to be bound to any particular theory, it appears that the ability to administer tasimelteon so close to sleep time is a function of its tmax, which is approximately one-half hour. Melatonin, on the other hand, which has a tmax of approximately 2 hours or more, is administered several hours before sleep time, which can cause premature sleepiness; to avoid this soporific effect, melatonin is sometimes administered at sub-optimal doses."}, "[3]": {"assay": "Solubility and pH of saturated solution", "assay_type": "physicochemical", "procedure": "as §1"}, "Non-24 patients [4]": {"system": "Non-24 patients", "assay": "Entrainment by peak aMT6s level and beta blocker use (clinical studies)", "assay_type": "in vivo, human", "procedure": "Results of clinical study also show a strong correlation between endogenous melatonin and efficacy of tasimelteon in entraining patients to a 24 hour circadian rhythm. The following table (Table 3A) compares the peak aMT6s levels in the 24 entrained and 23 non-entrained patients.\nData from these studies currently available also indicate that beta blocker therapy is […] related to efficacy of tasimelteon, i.e., patients receiving beta blocker therapy were less likely to become entrained than patients who were not."}, "Non-24 patients [5]": {"system": "Non-24 patients", "assay": "Phase advance of circadian rhythm on initiation of treatment", "assay_type": "in vivo, human", "conditions": "upon initiation of treatment", "procedure": "For example, treatment of a patient who has a target bedtime of 10:00 p.m. and a target wake time of 7:00 a.m., treatment initiation can be on a day when urinary aMT6s acrophase is predicted to occur at 3:30 am. However, treatment with tasimelteon can conveniently be initiated on a day on which melatonin acrophase, e.g., using calculated urinary aMT6s acrophase, is predicted to be between about 5.5 hours before target wake time and 2.5 hours after target wake time. Without intending to be bound to a particular theory, this flexibility is apparently owing to the unusually marked effects of such active ingredient on circadian rhythm upon initiation of treatment (e.g., phase advance by as much as about 5 hours on initial treatment)."}, "[6]": {"assay": "Tasimelteon exposure with ketoconazole (CYP3A4 inhibitor)", "assay_type": "in vivo, human", "conditions": "single 20 mg dose on fifth day of ketoconazole 400 mg per day vs tasimelteon alone", "procedure": "Therefore, in cases where an individual is co-administered a CYP3A4 inhibitor, the dose of tasimelteon administered may be less than if administered alone or in the absence of a CYP3A4 inhibitor.\nFor example, a pharmaceutical composition providing a dosage equivalent to a daily dosage between about 5 mg and about 15 mg of tasimelteon may be co-administered with a […] inhibitor."}, "[7]": {"assay": "Pharmacokinetics on co-administration of tasimelteon and fluvoxamine", "assay_type": "in vivo, human", "procedure": "Twenty-four healthy male or female subjects between the ages of 18 and 55 years of age (inclusive) who were non-smokers with a body mass index (BMI) of ≥18 and ≤35 kg/m2 participated in this open-label, single-sequence study conducted at one site. On day 1, subjects were administered […] of tasimelteon."}, "CYP1A2 and CYP3A4": {"system": "CYP1A2 and CYP3A4", "assay": "Isoenzymes involved in tasimelteon metabolism", "assay_type": "in vitro ADME"}, "[8]": {"conditions": "co-administration of fluvoxamine vs tasimelteon alone"}}, "note": "Entries after “also recorded” stand apart in the source; their conditions may differ.", "data": [{"compound": "CCC(=O)NC[C@@H]1C[C@H]1c1cccc2c1CCO2", "note": "(relative stereo) [Tasimelteon, trans-N-[[2-(2,3-dihydrobenzofuran-4-yl)cycloprop-1yl]methyl]propanamide]", "values": [{"measurement": "CL/F", "setting": "[1]; Non-Smokers", "result": "1,482 ± 1,008 mL/min"}, {"measurement": "CL/F", "setting": "[1]; Smokers", "result": "2,290 ± 1,232 mL/min"}, {"measurement": "AUC (inf), Geometric Mean Ratio", "setting": "[1]; Smokers vs Non-Smokers", "result": 60.14, "unit": "%"}, {"measurement": "CL/F, Geometric Mean Ratio", "setting": "[1]; Smokers vs Non-Smokers", "result": 166.27, "unit": "%"}, {"measurement": "Cmax, Geometric Mean Ratio", "setting": "[1]; Smokers vs Non-Smokers", "result": 63.98, "unit": "%"}, {"measurement": "Vz/F, Geometric Mean Ratio", "setting": "[1]; Smokers vs Non-Smokers", "result": 144.39, "unit": "%"}, {"measurement": "t½, Geometric Mean Ratio", "setting": "[1]; Smokers vs Non-Smokers", "result": 86.84, "unit": "%"}, {"measurement": "greater affinity for MT2R relative to MT1R", "setting": "MT2R", "result": "2-4 times"}, {"measurement": "Tmax", "setting": "[2]", "result": "approximately one-half; also recorded: about one-half"}, {"measurement": "effect of pH on aqueous solubility", "setting": "[3]", "result": "practically unaffected by pH"}, {"measurement": "native pH of a saturated solution in water", "setting": "[3]", "result": 8.5}, {"measurement": "solubility in organic solvents", "setting": "[3]; 95% ethanol, methanol, acetonitrile, ethyl acetate, isopropanol, PEG-300 and PEG-400", "result": "very soluble or freely soluble"}, {"measurement": "solubility in water", "setting": "[3]; water", "result": "only slightly soluble"}, {"measurement": "Entrained patients", "setting": "Non-24 patients [4]; Peak aMT6s <1500 ng/hr", "result": "12 (41%)"}, {"measurement": "Non-entrained patients", "setting": "Non-24 patients [4]; Peak aMT6s <1500 ng/hr", "result": "17 (59%)"}, {"measurement": "Entrained patients", "setting": "Non-24 patients [4]; Peak aMT6s <2000 ng/hr", "result": "13 (38%)"}, {"measurement": "Non-entrained patients", "setting": "Non-24 patients [4]; Peak aMT6s <2000 ng/hr", "result": "21 (62%)"}, {"measurement": "Entrained patients", "setting": "Non-24 patients [4]; Peak aMT6s ≥1500 ng/hr", "result": "12 (67%)"}, {"measurement": "Non-entrained patients", "setting": "Non-24 patients [4]; Peak aMT6s ≥1500 ng/hr", "result": "6 (33%)"}, {"measurement": "Entrained patients", "setting": "Non-24 patients [4]; Peak aMT6s ≥2000 ng/hr", "result": "11 (85%)"}, {"measurement": "Non-entrained patients", "setting": "Non-24 patients [4]; Peak aMT6s ≥2000 ng/hr", "result": "2 (15%)"}, {"measurement": "Entrained patients", "setting": "Non-24 patients [4]; Peak aMT6s: All (47 patients)", "result": "24 (51%)"}, {"measurement": "Non-entrained patients", "setting": "Non-24 patients [4]; Peak aMT6s: All (47 patients)", "result": "23 (49%)"}, {"measurement": "Entrained patients", "setting": "Non-24 patients [4]; Taking Beta Blocker: No", "result": 24}, {"measurement": "Non-entrained patients", "setting": "Non-24 patients [4]; Taking Beta Blocker: No", "result": 19}, {"measurement": "Entrained patients", "setting": "Non-24 patients [4]; Taking Beta Blocker: Yes", "result": 0}, {"measurement": "Non-entrained patients", "setting": "Non-24 patients [4]; Taking Beta Blocker: Yes", "result": 4}, {"measurement": "patients who responded to therapy", "setting": "Non-24 patients [4]; baseline aMT6s excretion rate >2000 ng/hr", "result": "Eleven of thirteen"}, {"measurement": "phase advance on initial treatment", "setting": "Non-24 patients [5]", "result": "≤ 5", "unit": "h"}, {"measurement": "increase of tasimelteon exposure", "setting": "[6]", "result": "approximately 54%"}, {"measurement": "CL/F", "setting": "[7]; Day 1, 5.667 mg tasimelteon alone", "result": "107 ± 555", "unit": "mL/min"}, {"measurement": "CL/F", "setting": "[7]; Day 8, 5.667 mg tasimelteon + 50 mg fluvoxamine", "result": "189 ± 155", "unit": "mL/min"}, {"measurement": "AUC (inf), Geometric Mean Ratio", "setting": "[7]; Day 8 vs Day 1", "result": 653.36, "unit": "%"}, {"measurement": "CL/F, Geometric Mean Ratio", "setting": "[7]; Day 8 vs Day 1", "result": 15.31, "unit": "%"}, {"measurement": "Cmax, Geometric Mean Ratio", "setting": "[7]; Day 8 vs Day 1", "result": 232.74, "unit": "%"}, {"measurement": "t½, Geometric Mean Ratio", "setting": "[7]; Day 8 vs Day 1", "result": 211.82, "unit": "%"}, {"measurement": "increase of AUC0-inf", "setting": "[7]; [8]", "result": "approximately 7 fold"}, {"measurement": "increase of Cmax", "setting": "[7]; [8]", "result": "approximately 2 fold"}, {"measurement": "isoenzymes also involved in metabolism", "setting": "CYP1A2 and CYP3A4", "result": "CYP1A1, CYP2D6, CYP2C19, and CYP2C9"}, {"measurement": "major isoenzymes involved in the metabolism", "setting": "CYP1A2 and CYP3A4", "result": "CYP1A2 and CYP3A4"}]}]}
